According to ChEMBL document CHEMBL1201862, “PubChem BioAssay data set” (2004):
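Where inhibition never reached the appropriate level, the endpoint shown equals the highest concentration tested. Otherwise, values were interpolated linearly from a five-concentration, 48-hour dose response in 96-well plates. GI50 is the concentration that inhibits growth by half.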 Activity calls are given as the source filed them. No stated cut-off is given here; in the data, active = GI50 up to about 1.1 µM and inactive = higher.

Columns and labels:
Experiment in all cases: NCI tumour cell line growth inhibition, 48 h
[1] = test system: MDA-N
[2] = test system: PC-3
[3] = test system: A549
[4] = test system: ACHN
[5] = test system: RPMI-8226
[6] = test system: SN12C
[7] = test system: MDA-MB-231
[8] = test system: HCC 2998
[9] = test system: HCT-116
[10] = test system: NCI-H460
[11] = test system: K562
[12] = test system: 786-0
[13] = test system: SK-OV-3
[14] = test system: OVCAR-3
[15] = test system: A498
[16] = test system: Malme-3M
[17] = test system: HCT-15
[18] = test system: OVCAR-4
[19] = test system: NCI-H23
[20] = test system: BT-549
[21] = test system: LOX IMVI
[22] = test system: NCI/ADR-RES
[23] = test system: COLO 205
[24] = test system: SF-295
[25] = test system: OVCAR-5
[26] = test system: IGROV-1
[27] = test system: SNB-19
[28] = test system: HL-60
[29] = test system: CAKI-1
[30] = test system: U-251
[31] = test system: DU-145
[32] = test system: HOP-92
[33] = test system: SR
[34] = test system: UACC-257
[35] = test system: TK-10
[36] = test system: SK-MEL-2
[37] = test system: SW-620
[38] = test system: OVCAR-8
[39] = test system: MCF7
[40] = test system: UACC-62
[41] = test system: KM12
[42] = test system: T47D
[43] = test system: SK-MEL-28
[44] = test system: MOLT-4
[45] = test system: CCRF-CEM
[46] = test system: NCI-H522
[47] = test system: NCI-H226
[48] = test system: MDA-MB-435
[49] = test system: SF-539
[50] = test system: HT-29
[51] = test system: UO-31
[52] = test system: SK-MEL-5
[53] = test system: EKVX
[54] = test system: HOP-62
[55] = test system: M14
[56] = test system: SNB-75
[57] = test system: SF-268
[58] = test system: RXF 393

Structure (SMILES): COc1nc(C(Cl)(Cl)Cl)c(Cl)c(O)c1Cl
- GI50 [1]: > 100 µM (inactive)
- GI50 [2]: > 100 µM (inactive)
- GI50 [3]: > 100 µM (inactive)
- GI50 [4]: > 100 µM (inactive)
- GI50 [5]: > 100 µM (inactive)
- GI50 [6]: > 100 µM (inactive)
- GI50 [7]: > 100 µM (inactive)
- GI50 [8]: > 100 µM (inactive)
- GI50 [9]: > 100 µM (inactive)
- GI50 [10]: > 100 µM (inactive)
- GI50 [11]: > 100 µM (inactive)
- GI50 [12]: > 100 µM (inactive)
- GI50 [13]: > 100 µM (inactive)
- GI50 [14]: > 100 µM (inactive)
- GI50 [15]: > 100 µM (inactive)
- GI50 [16]: > 100 µM (inactive)
- GI50 [17]: > 100 µM
- GI50 [18]: > 100 µM (inactive)
- GI50 [19]: > 100 µM (inactive)
- GI50 [20]: > 100 µM (inactive)
- GI50 [21]: > 100 µM (inactive)
- GI50 [22]: > 100 µM (inactive)
- GI50 [23]: > 100 µM (inactive)
- GI50 [24]: > 100 µM (inactive)
- GI50 [25]: > 100 µM (inactive)
- GI50 [26]: > 100 µM (inactive)
- GI50 [27]: > 100 µM (inactive)
- GI50 [28]: > 100 µM (inactive)
- GI50 [29]: 30.5 µM (inactive)
- GI50 [30]: > 100 µM (inactive)
- GI50 [31]: > 100 µM (inactive)
- GI50 [32]: > 100 µM (inactive)
- GI50 [33]: > 100 µM (inactive)
- GI50 [34]: > 100 µM (inactive)
- GI50 [35]: > 100 µM (inactive)
- GI50 [36]: > 100 µM (inactive)
- GI50 [37]: > 100 µM (inactive)
- GI50 [38]: > 100 µM (inactive)
- GI50 [39]: > 100 µM (inactive)
- GI50 [40]: > 100 µM (inactive)
- GI50 [41]: > 100 µM (inactive)
- GI50 [42]: > 100 µM (inactive)
- GI50 [43]: > 100 µM (inactive)
- GI50 [44]: > 100 µM (inactive)
- GI50 [45]: > 100 µM (inactive)
- GI50 [46]: 49.3 µM (inactive)
- GI50 [47]: > 100 µM (inactive)
- GI50 [48]: > 100 µM (inactive)
- GI50 [49]: > 100 µM (inactive)
- GI50 [50]: > 100 µM (inactive)
- GI50 [51]: > 100 µM (inactive)
- GI50 [52]: > 100 µM (inactive)
- GI50 [53]: > 100 µM (inactive)
- GI50 [54]: > 100 µM (inactive)

Structure (SMILES): C[C@H](C1CC2(C)OC2(C)C(=O)O1)[C@H]1CC[C@H]2[C@@H]3[C@@H]4O[C@@H]4[C@@]4(O)CC=CC(=O)[C@]4(C)[C@H]3CC[C@]12C (some centres undefined)
- GI50 [55]: > 50 µM (inactive)
- GI50 [1]: > 50 µM (inactive)
- GI50 [2]: > 50 µM (inactive)
- GI50 [3]: > 50 µM (inactive)
- GI50 [4]: > 50 µM (inactive)
- GI50 [5]: > 50 µM (inactive)
- GI50 [6]: > 50 µM (inactive)
- GI50 [7]: > 50 µM (inactive)
- GI50 [8]: > 50 µM (inactive)
- GI50 [9]: > 50 µM (inactive)
- GI50 [10]: > 50 µM (inactive)
- GI50 [11]: > 50 µM (inactive)
- GI50 [12]: > 50 µM (inactive)
- GI50 [13]: > 50 µM (inactive)
- GI50 [14]: > 50 µM (inactive)
- GI50 [15]: > 50 µM (inactive)
- GI50 [56]: 8.18 µM (inactive)
- GI50 [17]: > 50 µM
- GI50 [18]: > 50 µM (inactive)
- GI50 [19]: > 50 µM (inactive)
- GI50 [20]: > 50 µM (inactive)
- GI50 [21]: > 50 µM (inactive)
- GI50 [22]: > 50 µM (inactive)
- GI50 [23]: > 50 µM (inactive)
- GI50 [24]: > 50 µM (inactive)
- GI50 [25]: > 50 µM (inactive)
- GI50 [26]: > 50 µM (inactive)
- GI50 [27]: 29.6 µM (inactive)
- GI50 [28]: > 50 µM (inactive)
- GI50 [29]: > 50 µM (inactive)
- GI50 [30]: > 50 µM (inactive)
- GI50 [31]: 16.9 µM (inactive)
- GI50 [32]: > 50 µM (inactive)
- GI50 [34]: > 50 µM (inactive)
- GI50 [35]: > 50 µM (inactive)
- GI50 [36]: > 50 µM (inactive)
- GI50 [37]: > 50 µM (inactive)
- GI50 [38]: > 50 µM (inactive)
- GI50 [57]: > 50 µM (inactive)
- GI50 [39]: > 50 µM (inactive)
- GI50 [40]: > 50 µM (inactive)
- GI50 [58]: 9.71 µM (inactive)
- GI50 [41]: > 50 µM (inactive)
- GI50 [42]: 24.9 µM (inactive)
- GI50 [43]: > 50 µM (inactive)
- GI50 [44]: > 50 µM (inactive)
- GI50 [46]: 36.6 µM (inactive)
- GI50 [47]: > 50 µM (inactive)
- GI50 [48]: > 50 µM (inactive)
- GI50 [50]: > 50 µM (inactive)
- GI50 [51]: 12.3 µM (inactive)
- GI50 [52]: > 50 µM (inactive)
- GI50 [53]: > 50 µM (inactive)
- GI50 [54]: 37.8 µM (inactive)

Structure (SMILES): O=C(O)COc1cc(-c2ccccc2F)nc2cc3c(cc12)OCO3
- GI50 [55]: > 100 µM (inactive)
- GI50 [1]: > 100 µM (inactive)
- GI50 [2]: > 100 µM (inactive)
- GI50 [3]: > 100 µM (inactive)
- GI50 [4]: > 100 µM (inactive)
- GI50 [5]: > 100 µM (inactive)
- GI50 [6]: > 100 µM (inactive)
- GI50 [7]: > 100 µM (inactive)
- GI50 [8]: > 100 µM (inactive)
- GI50 [9]: > 100 µM (inactive)
- GI50 [11]: > 100 µM (inactive)
- GI50 [12]: > 100 µM (inactive)
- GI50 [13]: > 100 µM (inactive)
- GI50 [14]: > 100 µM (inactive)
- GI50 [56]: > 100 µM (inactive)
- GI50 [16]: > 100 µM (inactive)
- GI50 [17]: > 100 µM
- GI50 [19]: > 100 µM (inactive)
- GI50 [20]: 98.6 µM (inactive)
- GI50 [21]: > 100 µM (inactive)
- GI50 [22]: > 100 µM (inactive)
- GI50 [23]: > 100 µM (inactive)
- GI50 [24]: > 100 µM (inactive)
- GI50 [25]: > 100 µM (inactive)
- GI50 [26]: > 100 µM (inactive)
- GI50 [29]: > 100 µM (inactive)
- GI50 [30]: > 100 µM (inactive)
- GI50 [31]: > 100 µM (inactive)
- GI50 [32]: 61.8 µM (inactive)
- GI50 [33]: > 100 µM (inactive)
- GI50 [34]: > 100 µM (inactive)
- GI50 [35]: > 100 µM (inactive)
- GI50 [36]: > 100 µM (inactive)
- GI50 [37]: > 100 µM (inactive)
- GI50 [38]: > 100 µM (inactive)
- GI50 [57]: > 100 µM (inactive)
- GI50 [39]: > 100 µM (inactive)
- GI50 [40]: > 100 µM (inactive)
- GI50 [58]: > 100 µM (inactive)
- GI50 [41]: > 100 µM (inactive)
- GI50 [42]: > 100 µM (inactive)
- GI50 [43]: > 100 µM (inactive)
- GI50 [44]: > 100 µM (inactive)
- GI50 [45]: > 100 µM (inactive)
- GI50 [47]: > 100 µM (inactive)
- GI50 [48]: > 100 µM (inactive)
- GI50 [49]: > 100 µM (inactive)
- GI50 [50]: > 100 µM (inactive)
- GI50 [52]: > 100 µM (inactive)
- GI50 [53]: > 100 µM (inactive)
- GI50 [54]: > 100 µM (inactive)
